Experimental data published in patent US10175256B2, “Compositions and methods utilizing lysophosphatidylcholine scaffolds” (National University Of Singapore, priority 2013, dated 2019).
Several values for one entry are separate records, joined by “and”; a condition that tells them apart may be missing. Identical values can stand only once.

Biological target: T1, mouse Mfsd2a (Mus musculus, UniProt Q9DA75)
T1 construct: expressed in transfected cells; host or cells: HEK293
T1 sequence (Q9DA75 1-534): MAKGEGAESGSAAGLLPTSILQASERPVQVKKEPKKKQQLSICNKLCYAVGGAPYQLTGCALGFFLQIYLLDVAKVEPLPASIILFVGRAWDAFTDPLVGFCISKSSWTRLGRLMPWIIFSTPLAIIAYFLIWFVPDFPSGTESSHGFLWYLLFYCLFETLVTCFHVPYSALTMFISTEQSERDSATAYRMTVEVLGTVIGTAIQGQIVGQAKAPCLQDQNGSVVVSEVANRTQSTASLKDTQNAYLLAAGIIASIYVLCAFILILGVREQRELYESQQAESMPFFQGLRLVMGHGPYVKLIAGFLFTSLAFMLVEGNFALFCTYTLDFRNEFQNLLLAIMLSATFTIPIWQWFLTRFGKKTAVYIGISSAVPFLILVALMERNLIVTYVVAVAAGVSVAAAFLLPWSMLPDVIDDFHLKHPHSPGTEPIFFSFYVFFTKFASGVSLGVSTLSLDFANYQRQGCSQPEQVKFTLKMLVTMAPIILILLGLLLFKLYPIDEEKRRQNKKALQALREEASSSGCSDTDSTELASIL
Experiment: Cell-based free fatty acid transport/uptake in Mfsd2a expressing HEK293 cells (mass spectrometry, TLC; Table 1)
Details: Mfsd2a HEK293 cells, 100 uM fatty acid/BSA overnight
Outline: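 HEK293 cells expressing mouse Mfsd2a, or mock controls, were incubated overnight with 100 μM BSA-complexed fatty acids. Lipids were extracted in hexane:isopropanol (3:2) and phospholipid species quantified by HPLC-MS/MS against spiked internal standards. For TLC, cells received 100 μM [^14C]-oleate overnight, and phospholipids and neutral lipids were resolved.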

CCCCCCCCCCCCCCCC(=O)O [Palmitic acid]
% DHA in PC + lysoPC: 0.03823% and 0.0379% and 0.03421% | % DHA in PE + lysoPE: 10.42% and 11.02% and 9.771% | % DHA in PI and lysoPI: 0.01451% and 0.01192% and 0.01113% | % DHA in PS: 0.1262% and 0.1099% and 0.1138% | LPI16:0 in total phospholipid: 0.004365 mol percent and 0.003505 mol percent and 0.0022 mol percent | LPI18:0 in total phospholipid: 0.02606 mol percent and 0.0265 mol percent and 0.02588 mol percent | LPI20:4 in total phospholipid: 0.001669 mol percent and 0.001542 mol percent and 0.001553 mol percent | LPI22:6 in total phospholipid: 0.007831 mol percent and 0.008132 mol percent and 0.006212 mol percent | Lyso PE16:0p in total phospholipid: 2.777 mol percent and 2.934 mol percent and 3.347 mol percent | Lyso PE18:0p in total phospholipid: 0.434 mol percent and 0.5456 mol percent and 0.7875 mol percent | Lyso PE20:0p in total phospholipid: 0.2604 mol percent and 0.1622 mol percent and 0.3221 mol percent | LysoPC16:0e in total phospholipid: 0.004306 mol percent and 0.004045 mol percent and 0.00338 mol percent | LysoPC16:0 in total phospholipid: 0.02231 mol percent and 0.02238 mol percent and 0.01839 mol percent | LysoPC16:1 in total phospholipid: 0.006002 mol percent and 0.005731 mol percent and 0.005746 mol percent | LysoPC18:0e in total phospholipid: 0.002349 mol percent and 0.002697 mol percent and 0.00142 mol percent | LysoPC18:0 in total phospholipid: 0.005806 mol percent and 0.006675 mol percent and 0.006016 mol percent | LysoPC18:1 in total phospholipid: 0.01311 mol percent and 0.01254 mol percent and 0.01251 mol percent | LysoPC18:2 in total phospholipid: 0.001631 mol percent and 0.001146 mol percent and 0.001487 mol percent | LysoPC20:4 in total phospholipid: 0.000587 mol percent and 0.000539 mol percent and 0.000608 mol percent | LysoPC22:6 in total phospholipid: 0.000652 mol percent and 0.000809 mol percent and 0.000879 mol percent | LysoPE16:1 in total phospholipid: 0.1736 mol percent and 0.1327 mol percent and 0.1253 mol percent | LysoPE18:0 in total phospholipid: 0.1042 mol percent and 0.08847 mol percent and 0.1611 mol percent | LysoPE18:1 in total phospholipid: 0.1215 mol percent and 0.07373 mol percent and 0.07159 mol percent | PC32:0e in total phospholipid: 1.809 mol percent and 1.851 mol percent and 1.702 mol percent | PC32:0 in total phospholipid: 2.456 mol percent and 2.444 mol percent and 2.298 mol percent | PC32:1e in total phospholipid: 2.403 mol percent and 2.512 mol percent and 2.3 mol percent | PC32:1 in total phospholipid: 9.104 mol percent and 9.244 mol percent and 8.731 mol percent | PC32:2 in total phospholipid: 1.488 mol percent and 1.519 mol percent and 1.412 mol percent | PC34:1e in total phospholipid: 4.813 mol percent and 4.891 mol percent and 4.611 mol percent | PC34:1 in total phospholipid: 18.56 mol percent and 18.94 mol percent and 17.94 mol percent | PC34:2e in total phospholipid: 1.486 mol percent and 1.537 mol percent and 1.423 mol percent | PC34:2 in total phospholipid: 6.06 mol percent and 6.22 mol percent and 5.829 mol percent | PC34:3e in total phospholipid: 0.2283 mol percent and 0.2319 mol percent and 0.2175 mol percent | PC34:3 in total phospholipid: 0.615 mol percent and 0.6295 mol percent and 0.5976 mol percent | PC36:1e in total phospholipid: 1.432 mol percent and 1.425 mol percent and 1.342 mol percent | PC36:1 in total phospholipid: 2.54 mol percent and 2.547 mol percent and 2.409 mol percent | PC36:2e in total phospholipid: 1.609 mol percent and 1.633 mol percent and 1.504 mol percent | PC36:2 in total phospholipid: 5.692 mol percent and 5.815 mol percent and 5.439 mol percent | PC36:3e in total phospholipid: 0.8012 mol percent and 0.8224 mol percent and 0.7603 mol percent | PC36:3 in total phospholipid: 1.149 mol percent and 1.165 mol percent and 1.071 mol percent | PC36:4e in total phospholipid: 0.4287 mol percent and 0.4448 mol percent and 0.4173 mol percent | PC36:4 in total phospholipid: 0.3268 mol percent and 0.3193 mol percent and 0.308 mol percent | PC36:5e in total phospholipid: 0.3253 mol percent and 0.3343 mol percent and 0.309 mol percent | PC36:5 in total phospholipid: 0.05232 mol percent and 0.05663 mol percent and 0.05164 mol percent | PC36:6 in total phospholipid: 0.05108 mol percent and 0.04821 mol percent and 0.04326 mol percent | PC38:1e in total phospholipid: 0.3517 mol percent and 0.3555 mol percent and 0.3378 mol percent | PC38:3e in total phospholipid: 0.4164 mol percent and 0.4068 mol percent and 0.3798 mol percent | PC38:3 in total phospholipid: 0.5146 mol percent and 0.5317 mol percent and 0.5066 mol percent | PC38:4e in total phospholipid: 0.4168 mol percent and 0.4143 mol percent and 0.3843 mol percent | PC38:4 in total phospholipid: 0.4407 mol percent and 0.4455 mol percent and 0.4228 mol percent | PC38:5e in total phospholipid: 0.3513 mol percent and 0.3625 mol percent and 0.3264 mol percent | PC38:5 in total phospholipid: 0.2268 mol percent and 0.2451 mol percent and 0.2273 mol percent | PC38:6 in total phospholipid: 0.1683 mol percent and 0.1727 mol percent and 0.1591 mol percent | PC38:7 in total phospholipid: 0.1176 mol percent and 0.1195 mol percent and 0.1136 mol percent | PC40:1e in total phospholipid: 0.1793 mol percent and 0.1879 mol percent and 0.168 mol percent | PC40:2e in total phospholipid: 0.1944 mol percent and 0.1992 mol percent and 0.1788 mol percent | PC40:3e in total phospholipid: 0.1397 mol percent and 0.1434 mol percent and 0.1332 mol percent | PC40:4e in total phospholipid: 0.1237 mol percent and 0.1272 mol percent and 0.1205 mol percent | PC40:5e in total phospholipid: 0.1172 mol percent and 0.1169 mol percent and 0.1115 mol percent | PC40:5 in total phospholipid: 0.08233 mol percent and 0.08765 mol percent and 0.07997 mol percent | PC40:6 in total phospholipid: 0.1131 mol percent and 0.1203 mol percent and 0.105 mol percent | PC40:7 in total phospholipid: 0.1694 mol percent and 0.1653 mol percent and 0.1619 mol percent | PE32:1 in total phospholipid: 0.4397 mol percent and 0.3146 mol percent and 0.3699 mol percent | PE32:2 in total phospholipid: 0.09258 mol percent and 0.118 mol percent and 0.1193 mol percent | PE34:1 in total phospholipid: 1.562 mol percent and 1.425 mol percent and 1.336 mol percent | PE34:2 in total phospholipid: 1.088 mol percent and 0.9634 mol percent and 1.014 mol percent | PE34p:1 in total phospholipid: 1.042 mol percent and 1.072 mol percent and 1.479 mol percent
